Numbered stars: 1 amine (or outer) side, 2 acyl side, 3 side chain; on linkers, the order of the positions; unused ones are H or OH. Bridge positions count the residues as written; N and C are the ends. Square brackets hold non-standard residues; d marks the D form. Peptide text beside a SMILES is read from it. I, II: the chains in the order shown. * marks the point of attachment. Phe(4-tBu) = CC(C)(C)c1ccc(C[C@H](N)C(=O)O)cc1; Diglycolyl = O=C(COCC(=O)[*:2])[*:1]; Oleoyl = CCCCCCCC/C=C\CCCCCCCC(=O)*; NMeR = CN[C@@H](CCCNC(=N)N)C(=O)O; Palmitoyl = CCCCCCCCCCCCCCCC(=O)*; Myristoyl = CCCCCCCCCCCCCC(=O)*; β3hE = N[C@@H](CCC(=O)O)CC(=O)O; Pen = CC(C)(S)[C@H](N)C(=O)O; Lauroyl = CCCCCCCCCCCC(=O)*; Isovaleryl = CC(C)CC(=O)*; Hexanoyl = CCCCCC(=O)*
Target: α4β7 (Homo sapiens, UniProt P13612+P26010)
Assay: α4β7-MAdCAM Cell Adhesion Assay (RPMI 8866 human cells)
Assay type: cell-based
Set-up: host or cells: RPMI 8866 human B lymphoblastoid cells
Settings: Table 3-B, Potency (α4β7); range classes; read-out: α4β7 cell (Hu) IC50
In short: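 Washed RPMI 8866 cells (200,000/well) in DMEM with 0.1% BSA, 10 mM HEPES pH 7, 1 mM MnCl2 adhered to rh MAdCAM-1/Fc-coated wells with serially diluted peptides, 30-45 min at 37 °C. After three washes, bound cells quantified by MTT, A570, cell-free background subtracted for dose response.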

Sequence of α4β7 (P13612 34-1032): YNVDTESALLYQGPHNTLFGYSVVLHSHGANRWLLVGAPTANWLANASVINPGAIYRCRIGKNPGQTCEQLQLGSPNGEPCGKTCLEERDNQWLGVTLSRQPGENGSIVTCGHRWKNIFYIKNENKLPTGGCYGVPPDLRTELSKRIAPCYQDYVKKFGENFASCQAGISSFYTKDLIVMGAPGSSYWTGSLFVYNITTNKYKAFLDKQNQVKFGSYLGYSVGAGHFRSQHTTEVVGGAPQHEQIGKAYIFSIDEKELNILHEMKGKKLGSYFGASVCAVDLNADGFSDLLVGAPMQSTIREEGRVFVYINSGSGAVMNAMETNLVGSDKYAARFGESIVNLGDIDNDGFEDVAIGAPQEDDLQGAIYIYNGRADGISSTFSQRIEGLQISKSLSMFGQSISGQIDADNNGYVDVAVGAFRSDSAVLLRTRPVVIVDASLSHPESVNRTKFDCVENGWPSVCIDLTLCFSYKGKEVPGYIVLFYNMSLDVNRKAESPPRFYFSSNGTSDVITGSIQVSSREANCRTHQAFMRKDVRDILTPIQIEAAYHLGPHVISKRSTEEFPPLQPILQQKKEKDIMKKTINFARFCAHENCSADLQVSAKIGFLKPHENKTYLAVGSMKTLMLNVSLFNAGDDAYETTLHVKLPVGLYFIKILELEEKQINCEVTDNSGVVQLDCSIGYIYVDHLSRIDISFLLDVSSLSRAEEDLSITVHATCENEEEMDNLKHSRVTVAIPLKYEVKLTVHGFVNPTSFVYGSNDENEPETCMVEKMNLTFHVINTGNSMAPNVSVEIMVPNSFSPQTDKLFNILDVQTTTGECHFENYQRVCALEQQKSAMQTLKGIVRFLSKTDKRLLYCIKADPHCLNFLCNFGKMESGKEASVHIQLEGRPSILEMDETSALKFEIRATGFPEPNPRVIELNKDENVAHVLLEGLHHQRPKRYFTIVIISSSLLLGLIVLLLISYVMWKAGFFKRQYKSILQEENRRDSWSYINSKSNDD
Sequence of α4β7 (P26010 20-798): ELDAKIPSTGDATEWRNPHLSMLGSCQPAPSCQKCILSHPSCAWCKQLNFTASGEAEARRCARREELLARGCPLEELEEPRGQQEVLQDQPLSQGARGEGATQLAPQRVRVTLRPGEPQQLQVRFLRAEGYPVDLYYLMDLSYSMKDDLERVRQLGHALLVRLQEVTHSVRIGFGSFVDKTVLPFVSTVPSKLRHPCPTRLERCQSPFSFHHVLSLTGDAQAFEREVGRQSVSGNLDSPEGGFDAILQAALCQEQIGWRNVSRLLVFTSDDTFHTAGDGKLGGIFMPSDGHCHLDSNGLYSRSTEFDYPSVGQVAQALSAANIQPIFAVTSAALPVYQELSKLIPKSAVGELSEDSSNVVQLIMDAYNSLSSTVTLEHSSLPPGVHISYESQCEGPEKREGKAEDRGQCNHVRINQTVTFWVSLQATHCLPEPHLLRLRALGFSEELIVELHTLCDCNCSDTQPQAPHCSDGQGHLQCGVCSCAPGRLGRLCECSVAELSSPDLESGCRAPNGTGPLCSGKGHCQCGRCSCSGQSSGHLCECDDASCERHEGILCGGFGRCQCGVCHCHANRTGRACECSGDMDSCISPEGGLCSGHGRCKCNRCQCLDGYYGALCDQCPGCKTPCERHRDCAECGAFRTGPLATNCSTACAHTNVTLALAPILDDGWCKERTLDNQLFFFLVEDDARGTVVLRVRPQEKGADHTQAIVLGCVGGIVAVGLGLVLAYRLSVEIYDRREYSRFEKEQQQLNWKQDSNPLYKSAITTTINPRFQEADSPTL

SMILES | IC50 [µM]
CCCCCC(=O)N[C@@H]1C(=O)N(C)[C@@H](CCCNC(=N)N)C(=O)N[C@@H](CO)C(=O)N[C@@H](CC(=O)O)C(=O)N[C@@H]([C@@H](C)O)C(=O)N[C@@H](CC(C)C)C(=O)N[C@H](C(=O)N[C@@H](Cc2ccc(C(C)(C)C)cc2)C(=O)N[C@@H](CCC(=O)O)CC(=O)N[C@H](CCCCN)C(N)=O)C(C)(C)SSC1(C)C [compound 176] (Hexanoyl-[Pen][NMeR]SDTL[Pen][Phe(4-tBu)][β3hE][dK]-NH2; disulfide 1-7) | 0.05 to 0.1
CC(C)CC(=O)N[C@@H]1C(=O)N(C)[C@@H](CCCNC(=N)N)C(=O)N[C@@H](CO)C(=O)N[C@@H](CC(=O)O)C(=O)N[C@@H]([C@@H](C)O)C(=O)N[C@@H](CC(C)C)C(=O)N[C@H](C(=O)N[C@@H](Cc2ccc(C(C)(C)C)cc2)C(=O)N[C@@H](CCC(=O)O)CC(=O)N[C@H](CCCCN)C(N)=O)C(C)(C)SSC1(C)C [compound 177] (Isovaleryl-[Pen][NMeR]SDTL[Pen][Phe(4-tBu)][β3hE][dK]-NH2; disulfide 1-7) | 0.05 to 0.1
CCCCCCCCCCCCCCCC(=O)N[C@@H]1C(=O)N(C)[C@@H](CCCNC(=N)N)C(=O)N[C@@H](CO)C(=O)N[C@@H](CC(=O)O)C(=O)N[C@@H]([C@@H](C)O)C(=O)N[C@@H](CC(C)C)C(=O)N[C@H](C(=O)N[C@@H](Cc2ccc(C(C)(C)C)cc2)C(=O)N[C@@H](CCC(=O)O)CC(=O)N[C@H](CCCCN)C(N)=O)C(C)(C)SSC1(C)C [compound 178] (Palmitoyl-[Pen][NMeR]SDTL[Pen][Phe(4-tBu)][β3hE][dK]-NH2; disulfide 1-7) | 1 to 10
CCCCCCCCCCCC(=O)N[C@@H]1C(=O)N(C)[C@@H](CCCNC(=N)N)C(=O)N[C@@H](CO)C(=O)N[C@@H](CC(=O)O)C(=O)N[C@@H]([C@@H](C)O)C(=O)N[C@@H](CC(C)C)C(=O)N[C@H](C(=O)N[C@@H](Cc2ccc(C(C)(C)C)cc2)C(=O)N[C@@H](CCC(=O)O)CC(=O)N[C@H](CCCCN)C(N)=O)C(C)(C)SSC1(C)C [compound 179] (Lauroyl-[Pen][NMeR]SDTL[Pen][Phe(4-tBu)][β3hE][dK]-NH2; disulfide 1-7) | 0.1 to 0.5
CCCCCCCC/C=C\CCCCCCCC(=O)N[C@@H]1C(=O)N(C)[C@@H](CCCNC(=N)N)C(=O)N[C@@H](CO)C(=O)N[C@@H](CC(=O)O)C(=O)N[C@@H]([C@@H](C)O)C(=O)N[C@@H](CC(C)C)C(=O)N[C@H](C(=O)N[C@@H](Cc2ccc(C(C)(C)C)cc2)C(=O)N[C@@H](CCC(=O)O)CC(=O)N[C@H](CCCCN)C(N)=O)C(C)(C)SSC1(C)C [compound 180] (Oleoyl-[Pen][NMeR]SDTL[Pen][Phe(4-tBu)][β3hE][dK]-NH2; disulfide 1-7) | 1 to 10
CCCCCCCCCCCCCC(=O)N[C@@H]1C(=O)N(C)[C@@H](CCCNC(=N)N)C(=O)N[C@@H](CO)C(=O)N[C@@H](CC(=O)O)C(=O)N[C@@H]([C@@H](C)O)C(=O)N[C@@H](CC(C)C)C(=O)N[C@H](C(=O)N[C@@H](Cc2ccc(C(C)(C)C)cc2)C(=O)N[C@@H](CCC(=O)O)CC(=O)N[C@H](CCCCN)C(N)=O)C(C)(C)SSC1(C)C [compound 181] (Myristoyl-[Pen][NMeR]SDTL[Pen][Phe(4-tBu)][β3hE][dK]-NH2; disulfide 1-7) | 1 to 10
CC[C@H](C)[C@@H]1NC(=O)[C@H](CC(=O)O)NC(=O)[C@H](CO)NC(=O)[C@H](CCCNC(=N)N)N(C)C(=O)[C@@H](NC(C)=O)C(C)(C)SSC(C)(C)[C@@H](C(=O)N[C@@H](Cc2ccc(C(C)(C)C)cc2)C(=O)N[C@@H](CCC(=O)O)CC(=O)N[C@H](CCCCNC(=O)CN(CC(=O)NCCCC[C@@H](NC(=O)C[C@H](CCC(=O)O)NC(=O)[C@H](Cc2ccc(C(C)(C)C)cc2)NC(=O)[C@H]2NC(=O)[C@H](CC(C)C)NC(=O)[C@H]([C@@H](C)CC)NC(=O)[C@H](CC(=O)O)NC(=O)[C@H](CO)NC(=O)[C@H](CCCNC(=N)N)N(C)C(=O)[C@@H](NC(C)=O)C(C)(C)SSC2(C)C)C(N)=O)C(=O)CCN)C(N)=O)NC(=O)[C@H](CC(C)C)NC1=O [compound 186] | 0.1 to 0.5
CC(=O)N[C@@H]1C(=O)N(C)[C@@H](CCCNC(=N)N)C(=O)N[C@@H](CO)C(=O)N[C@@H](CC(=O)O)C(=O)N[C@@H]([C@@H](C)O)C(=O)N[C@@H](CCC(N)=O)C(=O)N[C@H](C(=O)N[C@@H](Cc2ccc(C(C)(C)C)cc2)C(=O)N[C@@H](CCC(=O)O)CC(=O)N[C@H](CCCCNC(=O)CN(CC(=O)NCCCC[C@@H](NC(=O)C[C@H](CCC(=O)O)NC(=O)[C@H](Cc2ccc(C(C)(C)C)cc2)NC(=O)[C@H]2NC(=O)[C@H](CCC(N)=O)NC(=O)[C@H]([C@@H](C)O)NC(=O)[C@H](CC(=O)O)NC(=O)[C@H](CO)NC(=O)[C@H](CCCNC(=N)N)N(C)C(=O)[C@@H](NC(C)=O)C(C)(C)SSC2(C)C)C(N)=O)C(=O)CCN)C(N)=O)C(C)(C)SSC1(C)C [compound 187] | 0.1 to 0.5
CC[C@H](C)[C@@H]1NC(=O)[C@H](CCC(N)=O)NC(=O)[C@H](CO)NC(=O)[C@H](CCCNC(=N)N)N(C)C(=O)[C@@H](NC(C)=O)C(C)(C)SSC(C)(C)[C@@H](C(=O)N[C@@H](Cc2ccc(C(C)(C)C)cc2)C(=O)N[C@@H](CCC(=O)O)CC(=O)N[C@H](CCCCNC(=O)COCC(=O)NCCCC[C@@H](NC(=O)C[C@H](CCC(=O)O)NC(=O)[C@H](Cc2ccc(C(C)(C)C)cc2)NC(=O)[C@H]2NC(=O)[C@H](CCC(N)=O)NC(=O)[C@H]([C@@H](C)CC)NC(=O)[C@H](CCC(N)=O)NC(=O)[C@H](CO)NC(=O)[C@H](CCCNC(=N)N)N(C)C(=O)[C@@H](NC(C)=O)C(C)(C)SSC2(C)C)C(N)=O)C(N)=O)NC(=O)[C@H](CCC(N)=O)NC1=O [compound 189] (I: Ac-[Pen][NMeR]SQIQ[Pen][Phe(4-tBu)][β3hE][dK]-NH2 / II: Ac-[Pen][NMeR]SQIQ[Pen][Phe(4-tBu)][β3hE][dK]-NH2; disulfide I:1-I:7, II:1-II:7; linker I:10-II:10 via Diglycolyl) | 10 to 100
CC[C@H](C)[C@@H]1NC(=O)[C@H](CCC(N)=O)NC(=O)[C@H](CO)NC(=O)[C@H](CCCNC(=N)N)N(C)C(=O)[C@@H](NC(C)=O)C(C)(C)SSC(C)(C)[C@@H](C(=O)N[C@@H](Cc2ccc(C(C)(C)C)cc2)C(=O)N[C@@H](CCC(=O)O)CC(=O)N[C@H](CCCCNC(=O)CN(CC(=O)NCCCC[C@@H](NC(=O)C[C@H](CCC(=O)O)NC(=O)[C@H](Cc2ccc(C(C)(C)C)cc2)NC(=O)[C@H]2NC(=O)[C@H](CCC(N)=O)NC(=O)[C@H]([C@@H](C)CC)NC(=O)[C@H](CCC(N)=O)NC(=O)[C@H](CO)NC(=O)[C@H](CCCNC(=N)N)N(C)C(=O)[C@@H](NC(C)=O)C(C)(C)SSC2(C)C)C(N)=O)C(=O)CCN)C(N)=O)NC(=O)[C@H](CCC(N)=O)NC1=O [compound 190] | > 100
CC(=O)N[C@@H]1C(=O)N(C)[C@@H](CCCNC(=N)N)C(=O)N[C@@H](CO)C(=O)N[C@@H](CC(=O)O)C(=O)N[C@@H](CC(=O)O)C(=O)N[C@@H](CC(C)C)C(=O)N[C@H](C(=O)N[C@@H](Cc2ccc(C(C)(C)C)cc2)C(=O)N[C@@H](CCC(=O)O)CC(=O)N[C@H](CCCCNC(=O)CN(CC(=O)NCCCC[C@@H](NC(=O)C[C@H](CCC(=O)O)NC(=O)[C@H](Cc2ccc(C(C)(C)C)cc2)NC(=O)[C@H]2NC(=O)[C@H](CC(C)C)NC(=O)[C@H](CC(=O)O)NC(=O)[C@H](CC(=O)O)NC(=O)[C@H](CO)NC(=O)[C@H](CCCNC(=N)N)N(C)C(=O)[C@@H](NC(C)=O)C(C)(C)SSC2(C)C)C(N)=O)C(=O)CCN)C(N)=O)C(C)(C)SSC1(C)C [compound 191] | 10 to 100

Tested on: not listed separately
Assay: Simulated Intestinal Fluid (SIF) Stability Assay
Assay type: in vitro ADME, porcine
Settings: pig, simulated intestinal fluid (SIF) with porcine pancreatin, pH 6.5, Table 3-B; > means experiment was stopped at that time and half life was not reached; read-out: Stabilty SIF t1/2
Description: Studies were carried out in simulated intestinal fluid (SIF) to evaluate intestinal stability of the peptide molecules of the instant invention. To prepare the SIF reagent, blank FASSIF was prepared by dissolving 0.348 g NaOH, 3.954 g sodium phosphate monobasic monohydrate and 6.186 g NaCl in a final volume of 1 liter water (final pH=6.5). To this solution, 24 g porcine pancreatin (Sigma catalog P7545) was added and stirred for 30 minutes (final pancreatin concentration is 2.4%). The solution was filtered through a cheese cloth and a No. 1 Whatman filter, and 10 ml aliquots were stored at −70° C. To run the reaction, a 10 ml aliquot was thawed at 37° C., and 125 ul aliquots were removed and mixed with an equal volume of blank FASSIF. The peptide stock solution (10 mM in 100% DMSO) was diluted 75-fold in blank FASSIF. A 50 μl aliquot of the diluted peptide was combined with 125 μl pancreatin (2.4%) and 125 μl blank FASSIF to yield final concentrations of 1% pancreatin and 22 μM peptide. The reactions were incubated at 37° C., and at various time points 50 μl aliquots were removed and added to 200 μl of quench solution containing 50% acetonitrile, 50% methanol, 5% formic acid, and 1 μg/ml internal standard. The quenched samples were centrifuged at 10,000 rpm for 10 minutes, and the supernatants were analyzed by LCMS/MS. The percent remaining at each time point was calculated based on the peak area response ratio of test to compound to internal standard. Half-lives were calculated by fitting to a first-order exponential decay equation using GraphPad.

SMILES | half-life at 22 μM [h]
CC(=O)N[C@@H]1C(=O)N(C)[C@@H](CCCNC(=N)N)C(=O)N[C@@H](CO)C(=O)N[C@@H](CC(=O)O)C(=O)N[C@@H]([C@@H](C)O)C(=O)N[C@@H](CC(C)C)C(=O)N[C@H](C(=O)N[C@@H](Cc2ccc(C(C)(C)C)cc2)C(=O)N[C@@H](CCC(=O)O)CC(=O)N[C@H](CCCCNC(=O)CN(CC(=O)NCCCC[C@@H](NC(=O)C[C@H](CCC(=O)O)NC(=O)[C@H](Cc2ccc(C(C)(C)C)cc2)NC(=O)[C@H]2NC(=O)[C@H](CC(C)C)NC(=O)[C@H]([C@@H](C)O)NC(=O)[C@H](CC(=O)O)NC(=O)[C@H](CO)NC(=O)[C@H](CCCNC(=N)N)N(C)C(=O)[C@@H](NC(C)=O)C(C)(C)SSC2(C)C)C(N)=O)C(=O)CCNC(=O)CCCCCC2(C)C(=CC=CC=CC3=[N+](CCCS(=O)(=O)[O-])c4ccc(S(=O)(=O)O)cc4C3(C)C)N(CCCS(=O)(=O)O)c3ccc(S(=O)(=O)O)cc32)C(N)=O)C(C)(C)SSC1(C)C (single isomer, unassigned) [compound 183] | > 3

Same assay, conditions: pig, simulated intestinal fluid (SIF) with porcine pancreatin, pH 6.5, Table 3-B; in parentheses after >180; read-out: Stabilty SIF t1/2, value in parentheses

SMILES | half-life at 22 μM [h]
CC(=O)N[C@@H]1C(=O)N(C)[C@@H](CCCNC(=N)N)C(=O)N[C@@H](CO)C(=O)N[C@@H](CC(=O)O)C(=O)N[C@@H]([C@@H](C)O)C(=O)N[C@@H](CC(C)C)C(=O)N[C@H](C(=O)N[C@@H](Cc2ccc(C(C)(C)C)cc2)C(=O)N[C@@H](CCC(=O)O)CC(=O)N[C@H](CCCCNC(=O)CN(CC(=O)NCCCC[C@@H](NC(=O)C[C@H](CCC(=O)O)NC(=O)[C@H](Cc2ccc(C(C)(C)C)cc2)NC(=O)[C@H]2NC(=O)[C@H](CC(C)C)NC(=O)[C@H]([C@@H](C)O)NC(=O)[C@H](CC(=O)O)NC(=O)[C@H](CO)NC(=O)[C@H](CCCNC(=N)N)N(C)C(=O)[C@@H](NC(C)=O)C(C)(C)SSC2(C)C)C(N)=O)C(=O)CCNC(=O)CCCCCC2(C)C(=CC=CC=CC3=[N+](CCCS(=O)(=O)[O-])c4ccc(S(=O)(=O)O)cc4C3(C)C)N(CCCS(=O)(=O)O)c3ccc(S(=O)(=O)O)cc32)C(N)=O)C(C)(C)SSC1(C)C (single isomer, unassigned) [compound 183] | 7.77
